Four compounds from ChEMBL document CHEMBL1137575, “Target specific virtual screening: optimization of an estrogen receptor screening platform” (J Med Chem, 2007) can be followed below.

One assay addresses T1, Estrogen receptor (Homo sapiens, UniProt P03372).
T1 sequence (P03372 whole entry): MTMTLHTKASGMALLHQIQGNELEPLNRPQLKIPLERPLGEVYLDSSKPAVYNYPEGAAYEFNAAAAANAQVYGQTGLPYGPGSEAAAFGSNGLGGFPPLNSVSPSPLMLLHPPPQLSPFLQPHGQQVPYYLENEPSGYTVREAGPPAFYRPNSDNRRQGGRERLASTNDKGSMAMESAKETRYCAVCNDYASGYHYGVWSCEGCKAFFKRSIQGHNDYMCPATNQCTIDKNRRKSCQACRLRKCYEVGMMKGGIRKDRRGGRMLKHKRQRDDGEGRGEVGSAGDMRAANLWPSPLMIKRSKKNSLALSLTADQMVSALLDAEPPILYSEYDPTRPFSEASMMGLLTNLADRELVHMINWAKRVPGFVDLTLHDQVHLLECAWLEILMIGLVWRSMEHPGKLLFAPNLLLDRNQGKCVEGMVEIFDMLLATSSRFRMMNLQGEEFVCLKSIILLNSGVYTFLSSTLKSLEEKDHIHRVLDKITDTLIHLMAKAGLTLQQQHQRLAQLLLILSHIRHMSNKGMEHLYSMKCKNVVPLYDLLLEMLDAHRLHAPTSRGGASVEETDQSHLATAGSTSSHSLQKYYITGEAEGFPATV
In words: Displacement of fluoromone from human recombinant ERalpha by fluorescence polarization assay. Background: Polarisation of emitted light reports the rotation of a fluorescent probe.

The target of another assay is Estrogen receptor beta (Homo sapiens, UniProt Q92731). Kind of assay: Displacement of fluoromone from human recombinant ERbeta by fluorescence polarization assay.
Chain of Estrogen receptor beta (Q92731 whole entry): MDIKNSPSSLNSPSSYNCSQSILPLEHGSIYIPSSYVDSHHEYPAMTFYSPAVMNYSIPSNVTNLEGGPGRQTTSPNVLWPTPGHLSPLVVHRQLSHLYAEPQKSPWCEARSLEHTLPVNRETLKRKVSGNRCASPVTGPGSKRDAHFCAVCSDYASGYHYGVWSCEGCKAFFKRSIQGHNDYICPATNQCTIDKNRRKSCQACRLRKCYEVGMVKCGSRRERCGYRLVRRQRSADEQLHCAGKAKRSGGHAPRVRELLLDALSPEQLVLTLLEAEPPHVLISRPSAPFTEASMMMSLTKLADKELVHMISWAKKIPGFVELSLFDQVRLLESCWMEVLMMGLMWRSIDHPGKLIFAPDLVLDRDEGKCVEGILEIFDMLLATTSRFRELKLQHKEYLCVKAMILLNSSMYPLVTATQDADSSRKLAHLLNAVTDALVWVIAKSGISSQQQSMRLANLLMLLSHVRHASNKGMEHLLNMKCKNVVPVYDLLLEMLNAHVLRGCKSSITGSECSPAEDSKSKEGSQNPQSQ
The species named for another assay is Homo sapiens. Kind of assay: Selectivity for ERalpha over ERbeta.
Assay [1] relates to MCF7. Kind of assay: Antiproliferative activity against MCF7 cells after 72 hrs by MTT assay. In kind it is functional, Homo sapiens. On the technique in general: Tetrazolium assays rely on reduction of a dye to a coloured formazan, in cell work by metabolically active cells.
For assay [2], the system named is MCF7. Kind of assay: Cytotoxicity against MCF7 cells after 72 hrs by LDH assay. In kind it is functional, cell-based. The settings on record: Homo sapiens.

Molecules are shown by their SMILES. Activity calls are given as the source filed them. The calls are words filed in the database; no cut-off is given here.

One may read the IC50 as the concentration that inhibits the measured activity by half. Consider `COC(=O)C1=C(N)Oc2cc(O)ccc2C1c1ccc(OCc2ccc(C)cc2)cc1` (stereo unspecified), for which the IC50 stood at 56 nM at Estrogen receptor and 915 nM on Estrogen receptor beta. Also, in the assay listed under Homo sapiens, the Ratio IC50 stood at 17. Besides, the Activity in the assay with MCF7 [1] stood at 7 µM. In addition, the result with MCF7 [2] was Active.
The compound `CC/C(=C(\c1ccccc1)c1ccc(OCCN(C)C)cc1)c1ccccc1` [TAMOXIFEN] yielded an Activity in the assay with MCF7 [1] of 4.6 µM.
As to `COC(=O)C1=C(N)Oc2cc(O)ccc2C1c1ccc(OCc2ccccc2F)cc1` (stereo unspecified), the IC50 stood at 53 nM at Estrogen receptor and 780 nM on Estrogen receptor beta. Moreover, the Ratio IC50 in the assay listed under Homo sapiens turned out to be 13.7. Moreover, the Activity in the assay on MCF7 [1] turned out to be 11.4 µM. Further, the outcome with MCF7 [2] was Active.
Take `COc1cc(C2Nc3ccccc3C(=O)N2Cc2ccccc2)ccc1O` (stereo unspecified): the IC50 on Estrogen receptor was 1100 nM; on Estrogen receptor beta, 6200 nM. Besides, the Ratio IC50 in the assay listed under Homo sapiens was found to be 4.4. In addition, the Activity in the assay on MCF7 [1] was 15 µM. Also, the result in the assay with MCF7 [2] was Active.
